Test results reported in patent US20110229559A1, “Drug Release From Nanoparticle-Coated Capsules” (University of South Australia, priority 2006, published 2011).

Columns and labels:
[1] = DBP release from liquid PDMS emulsion droplets (bare or silica nanoparticle-coated) into MilliQ water, sink conditions; assay type: physicochemical; settings: for release rate constant (interfacial transport): hydrophobic nanoparticle-coated liquid PDMS droplets; for activation energy (Ea) for crossing the interfacial barrier: liquid PDMS droplets, Arrhenius, 22-37° C.
Protocol: FIG. 7 is a graph of Ln (1−Mt/M0) versus time for DBP release profiles from hydrophobic nanoparticle-coated liquid PDMS emulsion (φ=0.01) containing 0.025 wt % DBP, 900 ml MQ water as dissolution medium, where […]10^−3M NaCl; ⋄10^−2 M NaCl; Δ10^−1 M NaCl;
FIG. 8 is a graph showing Arrhenius plots for DBP release profiles from hydrophobic coated liquid PDMS emulsion droplets (φ=0.01) containing 0.025 wt % DBP, 900 ml MQ water as dissolution medium, where […]10^−1 M NaCl; ⋄10^−3M NaCl;
In experiments, dibutylphthalate (DBP) was chosen as a model drug because it is a liquid that is poorly soluble but readily miscible with PDMS. Release profiles of DBP were determined from both bare droplets (i.e. droplets not coated with nanoparticles) and coated droplets (i.e. droplets coated with hydrophilic particles and from droplets coated with hydrophobic particles).
(§1) DBP was incorporated into the PDMS droplets during the synthesis step outlined in Example 3. A modification of the method reported by Obey, T. M. and Vincent, B., (1994), Journal of Colloid Interface Science, 163:454-463 and Goller, M. I. et al., (1997), Physiochemical and Engineering Aspects, 123-124 and 183-193 (without dialysis) was employed (herein incorporated by reference). PDMS droplets were prepared according to Example 3. A further batch of cross-linked PDMS droplets were prepared using the same procedure as for liquid droplets except that the mixtures of monomer and cross-linking trimer DEDMS:TEMS (tritethoxymethylsilane) at ratios 1:0.1-1 were used instead of pure monomer. The cross-linking level of the droplets prepared ranged from 0, 10, 20, 30, 40 to 50%.
(§2) Bare and nanoparticle-coated droplet samples were prepared by mixing 10 ml of the prepared emulsions with 10 ml of sonicated MilliQ water and silica aqueous dispersions, respectively. Salt concentrations were adjusted from between 10^−4 to 10^−1 M NaCl in order to control the nanoparticle layer structure as described above.
The release rate is even more retarded in the presence of a thick interfacial particle wall prepared at 10^−1 M NaCl. Thus, depending on salt concentration, hydrophobic silica nanoparticle coatings can provide a permeable or semi-permeable barrier.
The activation energy for crossing the interfacial barrier was determined using an Arrhenius approach. Release profiles for droplets coated at 10^−3 M NaCl and 10^−1 M NaCl were determined at four temperatures: 22° C., 27° C., 32° C. and 37° C. Kinetic rate constants were determined for each temperature from equation A above and from the plots Ln k vs. 1/T (FIG. 8) the activation energies (Ea) were calculated:
Aqueous solutions containing 1% diethoxy-dimethyl-silane (DEDMS), which was previously mixed with 0, 0.025, 0.1 and 0.25 wt % DBP in a nitrogen gas atmosphere, and 0.1% ammonia were sealed under nitrogen gas in a 250 ml reaction vessel, shaken vigorously for 30 seconds, and than tumbled at 30 rpm and 25° C. for 18 hours.

[2] = DBP release from cross-linked PDMS emulsion droplets (bare or silica nanoparticle-coated) into MilliQ water; assay type: physicochemical
Protocol: (§3) FIG. 12 is a graph showing DBP release profiles from cross-linked PDMS emulsion droplets (φ=0.01) containing 0.025 wt % DBP, 900 ml MQ water as dissolution medium, where ⋄ bare PDMS droplets and PDMS droplets coated by hydrophobic silica nanoparticles: […]10^−4M NaCl; Δ10^−3M NaCl; ◯10^−1 M NaCl;
as §3, with “FIG. 13” for “FIG. 12”, “showing Ln ([…]) versus time for drug” for “showing DBP”, “where ◯” for “where ⋄”, “silica nanoparticles;” for “silica nanoparticles:”
as §3, with “15” for “12”, “0.25” for “0.025”, “DBP in emulsions,” for “DBP,”, “[…]10^−4 M” for “[…]10^−4M”, “Δ10^−3 M” for “Δ10^−3M”
as §1, §2
Cross-linked droplets (40% cross-linked) were chosen for study due to the fact that DBP partitioning coefficients were the highest at this cross-linking level, i.e. entrapment of DBP was the highest. […] Hydrophilic silica nanoparticle-coated capsules (created at 10^−2 M NaCl) and permeable, hydrophobic silica nanoparticle-coated capsules (created at 10^−4 M NaCl) have no effect on drug dissolution as opposed to semi-permeable hydrophilic/hydrophobic silica nanoparticle coatings around capsules (created at 10^−3-10^−1 M NaCl).
The rate limiting step for drug release from bare cross-linked droplets is diffusion through the internal matrix, therefore the diffusion-limited model is applicable (FIG. 12). Good linear fits were obtained for the first 120 minutes of release (FIG. 13). Calculated diffusion coefficients are presented in the table of FIG. 14 and are in agreement with typical values for drug diffusion in gels (e.g. 4.8 to 6.5 nm^2s^−1).

[3] = assay type: physicochemical
Protocol: FIG. 10 is a graph showing DBP release profiles in 900 ml MQ water: pure DBP added: 1.1 mg/100 ml and DBP 0.1% wt in PDMS emulsion droplets (φ=0.01), where ⋄ bare liquid PDMS droplets; □ pure DBP; Δ pure DBP with hydrophilic silica nanoparticles; ◯ pure DBP with hydrophobic silica nanoparticles; * PDMS droplets coated by hydrophilic silica (10^−2 M NaCl); x PDMS droplets coated by hydrophobic silica nanoparticles (10^−4 M NaCl); + PDMS droplets coated by hydrophobic silica nanoparticles (10^−1 M NaCl); the dotted line corresponds to the maximal DBP concentration that can be achieved in the dissolution medium;
FIG. 11 is a graph of DBP release profiles in 900 ml MQ water, pure DBP added: 2.8 mg/100 ml and DBP (0.25% wt) in PDMS emulsion droplets (φ=0.01): ⋄ bare liquid PDMS droplets; □ pure DBP; Δ pure DBP with hydrophilic silica nanoparticles; ◯ pure DBP with hydrophobic silica nanoparticles; * PDMS droplets coated by hydrophilic silica nanoparticles (10^−2 M NaCl); x PDMS droplets coated by hydrophobic silica nanoparticles (10^−4 M NaCl); + PDMS droplets coated by hydrophobic silica nanoparticles (10-1 M NaCl); dotted line correspond to the maximal DBP concentration that can be achieved in the dissolution medium;
However, the dissolution rate is increased when DBP is incorporated into PDMS emulsion droplets.
Similar trends of increased solubility rate occur when the total DBP concentration is well above the solubility limit (2.8 mg/100 ml) (FIG. 11). The observed increase in solubility of DBP is even more evident giving rise to supersaturated solutions. The intensity and duration of the “supersaturation” effect is much more pronounced for hydrophobic silica coated droplets. For hydrophilic particles, the peak in the soluble DBP concentration is at a maximum after 2 hours and then subsequently the soluble amount of DBP decreases within the next 6 hours and eventually reduces back to the solubility limit (FIG. 11).

In the case of `CCCCOC(=O)c1ccccc1C(=O)OCCCC` [DBP, dibutylphthalate], the “drug release from within the bare droplets” value ([1]; bare liquid PDMS droplets, drug concentration significantly below its solubility limit in water) was “rapid and complete”, the “release rate constant (interfacial transport)” value ([1]; at 10^-1 M NaCl) was 0.05 nm^2s^-1 and the “release rate constant (interfacial transport)” value ([1]; at 10^-3 and 10^-2 M NaCl) was 0.3 nm^2s^-1. The half release time ([1]; liquid PDMS droplets coated with hydrophobic silica nanoparticles at 10^-3 and 10^-2 M NaCl, 0.025 wt % DBP) was “approximately 18 hours”, the “activation energy (Ea) for crossing the interfacial barrier” value ([1]; nanoparticle layer prepared at 10^-1 M NaCl) was 630 kJmol^-1 and the “activation energy (Ea) for crossing the interfacial barrier” value ([1]; nanoparticle layer prepared at 10^-3 M NaCl) was 580 kJmol^-1. The “activation energy for drug diffusion” value ([2]; bare cross-linked droplets) was 127±15 kJmol^-1, the “time for release process to reach equilibrium” value ([2]; cross-linked PDMS droplets, 0.025 wt % DBP) was “approximately 2 hours” and the “activation energy for drug diffusion” value ([2]; cross-linked droplets with hydrophobic silica nanoparticle coating, first value given) was 155 kJmol^-1. For the same molecule, the diffusion coefficient ([2]; cross-linked droplets with hydrophobic silica nanoparticle coating, first value given (salt level not stated, presumably 10^-3 M NaCl)) was 3.2 nm^2s^-1, the “activation energy for drug diffusion” value ([2]; cross-linked droplets with hydrophobic silica nanoparticle coating, second value given) was 177±25 kJmol^-1 and the diffusion coefficient ([2]; cross-linked droplets with hydrophobic silica nanoparticle coating, second value given (salt level not stated, presumably 10^-1 M NaCl)) was 2.4±0.5 nm^2s^-1. For the same molecule, the diffusion coefficient ([2]; cross-linked droplets, DBP concentration above the solubility limit (0.25 wt %), first 90 minutes) was 3.5±0.5 nm^2s^-1, the “amount of DBP loaded still remaining in the droplets after 2 hours” value (“amount of DBP loaded still remaining” for short) ([2]; cross-linked droplets, bare and coated with permeable silica nanoparticle coatings at 10^-4 M NaCl) was 25% and the “amount of DBP loaded still remaining” value ([2]; cross-linked droplets, silica coating at 10^-1 M NaCl) was 46%. For the same molecule, the “amount of DBP loaded still remaining” value ([2]; cross-linked droplets, silica coating at 10^-3 M NaCl) was 37%, the “time after which amount in solution reduces to the normal solubility limit (duration of supersaturation)” value [3] was 10 h and the “time of peak soluble DBP concentration” value [3] was 2 h. The “time to achieve the equilibrium solubility level” value [3] was “approximately 20 hours”.
